Experimental data as given in US20260152533A1, “COMBINATION INHIBITORS FOR TREATING FIBROSIS” (Memorial Sloan-Kettering Cancer Center, priority 2021, published 2026).

Experiments:
Assay type in all cases: cell-based, mouse
[1] = tested on: NIH-3T3 cells; test: Quantification of gene expression (qPCR), fibroblasts; settings: for Col1a1 mRNA expression: PC-deleted cells, 10% Gln, 48 hours (FIG. 5D, FIG. 11N)
Experimental: Total RNA was isolated from fibroblasts with Trizol (Life Technologies) according to the manufacturer's instructions, and […] RNA was used for cDNA synthesis using iScript (Bio-Rad). Real-time qPCR analysis was performed in technical triplicates using 1:40 diluted cDNAs and 0.1 μM forward and reverse primers together with Power SYBR Green (Life Technologies) in a QuantStudio 7 Flex (Applied Biosystems). Gene expression was quantified in Microsoft Excel 365 as relative expression ratio using primer efficiencies calculated by a relative standard curve. The geometric mean of the endogenous control genes 18 s, Actb and Rplp0 was used as reference sample.

[2] = tested on: NIH-3T3 cells; test: Growth experiments, NIH-3T3 cells; settings: for rescue of TGFβ-induced growth defect: TGFβ, 0.2, 1 or 5 mM metabolite
Text: NIH-3T3 cells were obtained from ATCC (CRL-1658); 293 T cells were obtained from ATCC (CRL-3216). PSCs were isolated from C57BL/6 mice by differential centrifugation as previously described^49 and their mesenchymal origin was validated by analyzing the expression of various mesenchymal and epithelial markers. MFBs were isolated from FVB/N mice by differential centrifugation as previously described^50. DB7 mouse breast cancer cells were obtained from Alexander Borowsky (University of California Davis Comprehensive Cancer Center, Sacramento, CA, USA) through an MTA to Ohio State University (OSU). KPC (Kras^LSL-G12D; Trp53^LSL-R172H; Pdx1-Cre) mouse PDAC cells were a gift from Scott Lowe (Memorial Sloan Kettering Cancer Center. (MSKCC)). All cells were cultured at 37° C. in 5% carbon dioxide (CO2) and 20% oxygen (O2) and were maintained in Dulbecco's Modified Eagles medium (DMEM) (25 mM D-glucose, 2 mM L-glutamine) supplemented with 10% fetal bovine serum (FBS) (Gemini), 100 units/ml penicillin and 100 μg/ml streptomycin. Primary PSC and MFB cells were kept in culture for no more than ten passages. Experiments with iCAFs and myCAFs were performed as previously described^29. In brief, qPSCs were generated by culturing PSCs in a dome of GFR Matrigel (Corning) in DMEM; iCAFs were generated by culturing PSCs in a dome of GFR Matrigel in DMEM conditioned by KPC cells for 48 h; myCAFs were generated by monolayer culture of PSCs. Differentiation was validated by analyzing the expression of iCAF/myCAF markers^29. For experiments with different glutamine concentrations, cells were seeded in regular DMEM and the medium was changed 5-6 hours later or the following day to glucose and glutamine-free DMEM supplemented with 10% dialyzed FBS (Gemini) and 20 mM D-glucose, 2 mM L-glutamine (100%), 0.4 mM L-glutamine (20%) or 0.2 mM L-glutamine (10%). All media were prepared by the Media Preparation Facility at MSKCC. Cells were verified as mycoplasma-free by the MycoAlert Mycoplasma Detection Kit (Lonza).
(§1) A total of 0.2×10^5 cells/well were plated in 24-well culture plates and media was changed and treatments started 5-6 hours later. Cell numbers at the start of treatment (day 0 “d 0”) and 1, 2 and 3 days later were counted using the Multisizer 4e (Beckman) and normalized to the cell number at d 0. In co-culture assays, a fraction of the cell population was analyzed by flow cytometry for GFP expression, and the rest counted with the Multisizer 4e. The number of KPC-GFP cells was determined by multiplying the fraction of GFP+ cells with the total number of cells.

[3] = tested on: NIH-3T3 cells; test: Collagen abundance in ECM derived from confluent NIH-3T3 cells; settings: 100% and 50% Gln, TGFβ
Experimental: Culture plates were coated with 0.1% gelatin (Sigma) and treated with 1% glutaraldehyde (Sigma) and 1 M ethanolamine (Sigma). Confluent NIH-3T3 cells, MFBs or PSCs were grown for 6 days on coated plates in the presence of […] sodium ascorbate (Sigma) and treated as indicated, and the medium was replaced every other day. Plates were decellularized with 20 mM ammonium hydroxide/0.5% Triton-X 100 for 5 min on a rotating platform. Three times the volume of PBS was added, and ECM was equilibrated overnight at 4° C., followed by four additional PBS washes. For western blot, preheated sample buffer supplemented with 1 mM dithiothreitol (DTT) was added, ECM was scraped off and boiled, and proteins were separated by SDS-PAGE followed by immunoblotting. To measure collagen abundance, fibroblast-derived ECM was stained with the Picro Sirius Red Stain Kit (Abcam) according to the manufacturer's instructions. The stain was extracted with 0.1 M sodium hydroxide (NaOH) and optical density was measured at 550 nm using a microplate reader. Differences in cell number were controlled for by growing cells on separate plates under the same experimental conditions.

[4] = tested on: pancreatic stellate cells (PSCs); test: Growth experiments, PSCs; settings: 20% Gln, TGFβ
Text: (§2) NIH-3T3 cells were obtained from ATCC (CRL-1658); 293 T cells were obtained from ATCC (CRL-3216). PSCs were isolated from C57BL/6 mice by differential centrifugation as previously described^49 and their mesenchymal origin was validated by analyzing the expression of various mesenchymal and epithelial markers. MFBs were isolated from FVB/N mice by differential centrifugation as previously described^50. DB7 mouse breast cancer cells were obtained from Alexander Borowsky (University of California Davis Comprehensive Cancer Center, Sacramento, CA, USA) through an MTA to Ohio State University (OSU). KPC (Kras^LSL-G12D; Trp53^LSL-R172H; Pdx1-Cre) mouse PDAC cells were a gift from Scott Lowe (Memorial Sloan Kettering Cancer Center. (MSKCC)). […]
as §1

[5] = tested on: mammary fibroblasts (MFBs); test: Growth experiments, MFBs; settings: 20% Gln, TGFβ
Text: as §2, §1

[6] = tested on: NIH-3T3 cells; test: Translation assay (OPP), NIH-3T3 cells; settings: TGFβ
Experimental: Cells were treated as indicated and incubated with 20 μM O-propargyl-puromycin (OPP, Thermo Scientific) for the last 1 hour of the experiment. Cells were harvested by trypsinization and fixed with methanol at −20° C., followed by permeabilization with 0.5% Triton X-100 in phosphate-buffered saline (PBS).

[7] = tested on: NIH-3T3 cells; test: tRNA charging assay, NIH-3T3 cells
Experimental: Charging status of the indicated tRNA isodecoders was measured as previously described^20. In brief, Trizol-chloroform extracts were precipitated with 2.7× volumes of cold ethanol in the presence of 30 μg GlycoBlue (ThermoFisher) overnight. Samples were resuspended in 0.3 M acetate buffer (pH 4.5) with 10 mM ethylenediamine tetraacetic acid (EDTA) and precipitated overnight. Samples were resuspended in 10 mM acetate buffer with 1 mM EDTA. 2 μg of each RNA sample was treated with 10 mM of either sodium periodate (Sigma) (‘oxidized sample’) or sodium chloride (‘non-oxidized sample’) and incubated for 20 minutes at room temperature in the dark. Reactions were quenched with glucose for 15 minutes. Yeast Phe-tRNA (Sigma) was spiked into each sample, followed by ethanol precipitation. Samples were resuspended in 50 mM Tris buffer (pH 9) and incubated for 50 minutes at 37° C., quenched with acetate buffer and precipitated. […] Reverse transcription was performed with SuperScript IV reverse transcriptase (Thermo Scientific) according to the manufacturer's instructions, with a primer complementary to the DNA adaptor. cDNA samples were subjected to qPCR with tRNA isodecoder-specific primer pairs listed in Supplementary Table 1. Ct values obtained with primers specific for yeast Phe-tRNA were subtracted from Ct values obtained with isodecoder-specific primers. The charged fraction was calculated based on the relative difference between the delta-Ct value of a non-oxidized (representing total) and oxidized (representing charged) sample for each primer pair.

Molecule	Col1a1 mRNA expression [1]	rescue of TGFβ-induced growth defect ([2]; 10% Gln, 3 days)	collagen I levels in the ECM secreted by confluent fibroblasts [3]	cell proliferation [4]	cell proliferation [5]	PC transcript levels ([1]; all fibroblast types analysed, 100% Gln, TGFβ 24 hours)	cell proliferation ([2]; 10% Gln, TGFβ)	cell proliferation ([2]; 100% and 50% Gln, TGFβ 2 ng/mL, 3 days)	bulk translation ([6]; low Gln (10%), 48 hours, compared to control cells (FIG. 1F))	charging state of glutamine-tRNA ([7]; low Gln (10%), TGFβ, 48 hours (FIG. 1D))	translation ([6]; 10% Gln, dm-αKG (FIG. 2B))	charging of glutamine-tRNA ([7]; 10% Gln, TGFβ 2 ng/mL, dm-αKG 5 mM with or without MSO 2 mM, 48 hours (FIG. 2A))
COC(=O)CC[C@H](N)C(=O)OC [dm-Glu, L-glutamic acid dimethylester]	rescued	sufficient to restore										
TGFβ: transforming growth-factor beta; TGFβ-1 purchased from Peprotech			upregulated	unable to proliferate	unable to proliferate	reduced	ceased to proliferate	did not change	reduced	profound uncharging		
COC(=O)CCC(=O)C(=O)OC [dm-αKG, dimethyl alpha-ketoglutarate]	rescued	able to rescue									promoted	restored
